Where two headings read alike, the source gives them in different places.
What was measured:
[1] = rcm bond, 15-membered ring, Zhan 1b, 1,2-DCE
[2] = system: HCV replicon D168A variant in Huh7 cells; assay: microbe, parasite or virus in culture; type: cell-based, Hepatitis C virus; conditions: for EC50: Hepatitis C virus
Summary of the method: (§1)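 Huh7 cells electroporated with replicon RNA and exposed to rising concentrations of protease inhibitor, with replication read as luciferase signal at 96 h. Reporter is a genotype 1b Con1 backbone containing genotype 1a H77 NS3, with mutants introduced by site-directed mutagenesis.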

[3] = system: HCV replicon A156T variant in Huh7 cells; assay: microbe, parasite or virus in culture; type: cell-based, Hepatitis C virus; conditions: for EC50: Hepatitis C virus
Summary of the method: as §1

[4] = system: HCV replicon R155K variant in Huh7 cells; assay: microbe, parasite or virus in culture; type: cell-based, Hepatitis C virus; conditions: for EC50: Hepatitis C virus
Summary of the method: as §1

[5] = biological target: GT1a R155K NS3/4A protease; type: biochemical, Hepatitis C virus; conditions: fold change in Ki, R155K relative to WT
Experimental: (§2) For each assay, 2 nM of NS3/4A protease (GT1a, R155K and D168A) was pre-incubated at room temperature for 1 h with increasing concentration of inhibitors in assay buffer (50 mM Tris, 5% glycerol, 10 mM DTT, 0.6 mM LDAO, and 4% dimethyl sulfoxide, pH 7.5). Inhibition assays were performed in non-binding surface 96-well black half-area plates (Corning) in a reaction volume of 60 μL. […] Three independent data sets were collected for each inhibitor with each protease construct. […] Gibbs free energy of binding was calculated using the following equation: ΔG=RTlnKi

[6] = biological target: GT1a R155K NS3/4A protease (UniProt P27958, R1181K, species not given); type: biochemical, Hepatitis C virus
Experimental: as §2

[7] = system: wild-type HCV replicon in Huh7 cells; assay: Cell-based drug susceptibility (replicon) assay, wild-type; conditions: Hepatitis C virus, read-out: Replicon EC50 (nM) WT
Summary of the method: as §1

[8] = biological target: T1, GT1a D168A NS3/4A protease (UniProt P27958, D1194A, species not given); type: biochemical, Hepatitis C virus
T1 construct: rows headed: Ki (nM) D168A; Ki D168A; other: D168A variant
Summary of the method: (§3)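 Enzyme (GT1a wild type or D168A mutant, 2 nM) was preincubated with inhibitor dilutions for 1 h at room temperature in pH 7.5 Tris buffer with glycerol, DTT, LDAO and 4% DMSO.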

[9] = biological target: T2, wild-type GT1a NS3/4A protease (UniProt P27958); type: biochemical, Hepatitis C virus
T2 construct: Ki WT; other: wild-type HCV NS3/4A protease
Summary of the method: as §3

[10] = biological target: GT1a D168A NS3/4A protease; type: biochemical, Hepatitis C virus; conditions: for Ki (Fold change) GT1a D168A NS3/4A Protease: Table 3, Ki D168A relative to GT1a WT
Summary of the method: as §3

[11] = system: HCV replicon D168V variant in Huh7 cells; assay: microbe, parasite or virus in culture; type: cell-based, Hepatitis C virus
Summary of the method: as §1

[12] = biological target: T3, wild-type GT1a NS3/4A protease (UniProt P27958, C1185S, species not given); type: biochemical, Hepatitis C virus; conditions: read-out: Ki (nM) GT1a WT NS3/4A Protease
T3 construct: Ki (nM) GT1a WT NS3/4A Protease
Summary of the method: as §3

[13] = biological target: T4, GT1a D168A NS3/4A protease (UniProt P27958, C1185S/D1194A, species not given); type: biochemical, Hepatitis C virus; conditions: read-out: Ki (nM) GT1a D168A NS3/4A Protease
T4 construct: Ki (nM) GT1a D168A NS3/4A Protease
Summary of the method: as §3

[14] = Huh-7, 96 h, read-out: Replicon EC50 (nM) D168A, Table 2, Huh7 cells, luciferase 96 h
[15] = Huh-7, read-out: Replicon EC50 (nM) D168A, Table 4
[16] = Table 4, relative to WT replicon
[17] = Huh-7, 96 h, read-out: Replicon EC50 (nM) A156T, Table 2, Huh7 cells, luciferase 96 h
[18] = Huh-7, read-out: Replicon EC50 (nM) A156T, Table 4
[19] = Huh-7, 96 h, read-out: Replicon EC50 (nM) R155K, Table 2, Huh7 cells, luciferase 96 h
[20] = Huh-7, read-out: Replicon EC50 (nM) R155K, Table 4
[21] = Huh-7, 96 h, Table 2, Huh7 cells, luciferase 96 h
[22] = Hepatitis C virus, Huh-7, 96 h, read-out: Replicon EC50 (nM) D168V, Table 2, Huh7 cells, luciferase 96 h
[23] = Hepatitis C virus, Huh-7, read-out: Replicon EC50 (nM) D168V, Table 4

Compound: CCOC(=O)[C@@]12C[C@H]1/C=C\CCCCC[C@H](NC(=O)OC(C)(C)C)C(=O)N1C[C@H](Oc3nc4cc(OC)ccc4nc3C(F)(F)F)C[C@H]1C(=O)N2
- ring closure, isolated yield ([1]; from C=CCCCCC[C@H](NC(=O)OC(C)(C)C)C(=O)N1C[C@H](Oc2nc3cc(OC)ccc3nc2C(F)(F)F)C[C@H]1C(=O)N[C@]1(C(=O)OCC)C[C@H]1C=C, 6.7 mM, 70.0 °C, 5.0 h): 70%

Compound: C=C[C@@H]1C[C@]1(NC(=O)[C@@H]1C[C@@H](Oc2nc3cc(OC)ccc3nc2Cl)CN1C(=O)[C@@H](NC(=O)OC1CCCC1)C(C)(C)C)C(=O)NS(=O)(=O)C1(C)CC1 [Compound 12d, Cyclopentyl ((S)-1-((2S,4R)-4-((3-chloro-7-methoxyquinoxalin-2-yl)oxy)-2-(((1R,2S)-1-(((1-methylcyclopropyl)sulfonyl)carbamoyl)-2-vinylcyclopropyl)carbamoyl)pyrrolidin-1-yl)-3,3-dimethyl-1-oxobutan-2-yl)carbamate]
- Replicon EC50 (Fold change) D168A ([2]; Table 9, relative to WT): (8.1) fold
- EC50 ([3]; Huh-7, read-out: Replicon EC50 (nM) A156T, Table 9): 163 nM
- Replicon EC50 (Fold change) A156T ([3]; Table 9, relative to WT): (53) fold
- EC50 ([4]; Huh-7, read-out: Replicon EC50 (nM) R155K, Table 9): 27 nM
- Replicon EC50 (Fold change) R155K ([4]; Table 9, relative to WT): (8.7) fold
- Ki R155K (fold change) [5]: 1.3
- Ki ([6]; read-out: Ki (nM) R155K, Table 8, linear inhibitors): 5.2 ± 0.8 nM
- Ki ([6]; read-out: Ki R155K, R155K variant): 5.2 ± 0.8 nM
- EC50 ([7]; Huh-7, Table 9): 3.1 nM
- Ki ([8]; read-out: Ki (nM) D168A, Table 8, linear inhibitors): 51 ± 6 nM
- Ki ([8]; read-out: Ki D168A, D168A variant): 51 ± 6 nM
- Ki ([9]; read-out: Ki (nM) WT, Table 8, linear inhibitors): 3.9 nM
- Ki ([9]; read-out: Ki WT, wild-type HCV NS3/4A protease): 3.9 ± 0.7 nM
- Ki D168A (fold change) ([10]; fold change in Ki, D168A relative to WT): 13
- EC50 ([11]; Hepatitis C virus, Huh-7, read-out: Replicon EC50 (nM) D168V, Table 9): 12 to 38 nM
- Replicon EC50 (Fold change) D168V ([11]; Table 9, relative to WT): (7.4) fold
- EC50 ([11]; read-out: Replicon EC50 (nM) D168V, Table 9): 23 nM

Compound: CC(C)(C)OC(=O)N[C@H]1CCCCC/C=C\[C@@H]2C[C@@]2(C(=O)NS(=O)(=O)C2CC2)NC(=O)[C@@H]2C[C@@H](Oc3nc4ccccc4nc3-c3cccs3)CN2C1=O [Compound 18f, tert-Butyl ((2R,6S,13aS,14aR,16aS,Z)-14a-((cyclopropylsulfonyl)carbamoyl)-5,16-dioxo-2-((3-(thiophen-2-yl)quinoxalin-2-yl)oxy)-1,2,3,5,6,7,8,9,10,11,13a,14,14a,15,16,16a-hexadecahydrocyclopropa[e]pyrrolo[1,2-a][1,4]diazacyclopentadecin-6-yl)carbamate, reference compound]
- EC50 [2, 14]: 111 nM
- EC50 [2, 15]: 111 nM
- Replicon EC50 (Fold change) D168A [2, 16]: (113) fold
- EC50 [3, 17]: 256 nM
- EC50 [3, 18]: 256 nM
- Replicon EC50 (Fold change) A156T [3, 16]: (261) fold
- EC50 [4, 19]: 21.7 nM
- EC50 [4, 20]: 21.7 nM
- Replicon EC50 (Fold change) R155K [4, 16]: (22) fold
- ring closure, isolated yield ([1]; from C=CCCCCC[C@H](NC(=O)OC(C)(C)C)C(=O)N1C[C@H](Oc2nc3ccccc3nc2-c2cccs2)C[C@H]1C(=O)N[C@]1(C(=O)NS(=O)(=O)C2CC2)C[C@H]1C=C, 3.5 mM, 70.0 °C): 61%
- ring closure, isolated yield ([1]; 3.5 mM): 61%
- EC50 [7, 21]: 0.98 nM
- EC50 ([7]; Huh-7, Table 4): 0.98 nM
- Ki ([12]; Table 1): 1.03 nM
- Ki ([12]; Table 3): 1.03 nM
- Ki ([13]; Table 1): 1820 nM
- Ki ([13]; Table 3): 1820 ± 347 nM
- EC50 [11, 22]: 193 nM
- EC50 [11, 23]: 193 nM
- Replicon EC50 (Fold change) D168V [11, 16]: (197) fold

Compound: CCc1nc2ccccc2nc1O[C@@H]1C[C@H]2C(=O)N[C@]3(C(=O)NS(=O)(=O)C4CC4)C[C@H]3/C=C\CCCCC[C@H](NC(=O)OC(C)(C)C)C(=O)N2C1 [Compound 18g, tert-Butyl ((2R,6S,13aS,14aR,16aS,Z)-14a-((cyclopropylsulfonyl)carbamoyl)-2-((3-ethylquinoxalin-2-yl)oxy)-5,16-dioxo-1,2,3,5,6,7,8,9,10,11,13a,14,14a,15,16,16a-hexadecahydrocyclopropa[e]pyrrolo[1,2-a][1,4]diazacyclopentadecin-6-yl)carbamate]
- EC50 [2, 14]: 8.55 nM
- EC50 [2, 15]: 8.55 nM
- Replicon EC50 (Fold change) D168A [2, 16]: (19) fold
- EC50 [3, 17]: 10.6 nM
- EC50 [3, 18]: 10.6 nM
- Replicon EC50 (Fold change) A156T [3, 16]: (23) fold
- EC50 [4, 19]: 1.81 nM
- EC50 [4, 20]: 1.81 nM
- Replicon EC50 (Fold change) R155K [4, 16]: (4) fold
- ring closure, isolated yield ([1]; 6.9 mM): 60%
- EC50 [7, 21]: 0.46 nM
- EC50 ([7]; Huh-7, Table 4): 0.46 nM
- Ki ([12]; Table 1): 7.18 nM
- Ki ([12]; Table 3): 7.18 nM
- Ki (Fold change) GT1a D168A NS3/4A Protease [10]: (26) fold
- Ki ([13]; Table 1): 190 nM
- Ki ([13]; Table 3): 190 ± 13 nM
- EC50 [11, 22]: 14 nM
- EC50 [11, 23]: 14 nM
- Replicon EC50 (Fold change) D168V [11, 16]: (30) fold

Compound: COc1ccc2nc(C(C)C)c(O[C@@H]3C[C@H]4C(=O)N[C@]5(C(=O)NS(=O)(=O)C6(C)CC6)C[C@H]5/C=C\CCCCC[C@H](NC(=O)OC(C)(C)C)C(=O)N4C3)nc2c1 [Compound 19e, tert-Butyl ((2R,6S,13aS,14aR,16aS,Z)-2-((3-isopropyl-7-methoxyquinoxalin-2-yl)oxy)-14a-(((1-methylcyclopropyl)sulfonyl)carbamoyl)-5,16-dioxo-1,2,3,5,6,7,8,9,10,11,13a,14,14a,15,16,16a-hexadecahydrocyclopropa[e]pyrrolo[1,2-a][1,4]diazacyclopentadecin-6-yl)carbamate]
- EC50 [2, 14]: 11.9 nM
- EC50 [2, 15]: 11.9 nM
- Replicon EC50 (Fold change) D168A [2, 16]: (6) fold
- EC50 [3, 17]: 21.2 nM
- EC50 [3, 18]: 21.2 nM
- Replicon EC50 (Fold change) A156T [3, 16]: (11) fold
- EC50 [4, 19]: 4.14 nM
- EC50 [4, 20]: 4.14 nM
- Replicon EC50 (Fold change) R155K [4, 16]: (2) fold
- ring closure, isolated yield ([1]; 6.6 mM): 60%
- EC50 [7, 21]: 1.86 nM
- EC50 ([7]; Huh-7, Table 4): 1.86 nM
- Ki ([12]; Table 1): 0.58 nM
- Ki ([12]; Table 3): 0.58 nM
- Ki (Fold change) GT1a D168A NS3/4A Protease [10]: (364) fold
- Ki ([13]; Table 1): 211 nM
- Ki ([13]; Table 3): 211 ± 19 nM
- EC50 [11, 22]: 18.1 nM
- EC50 [11, 23]: 18.1 nM
- Replicon EC50 (Fold change) D168V [11, 16]: (10) fold

Compound: tert-Butyl 42R,6S,13aS,14aR,16aS,Z)-14a-((cyclopropylsulfonyl)carbamoyl)-2-((3-isopropyl-7-methoxyquinoxalin-2-yl)oxy)-5,16-dioxo-1,2,3,5,6,7,8,9,10,11,13a,14,14a,15,16,16a-hexadecahydrocyclopropa[e]pyrrolo[1,2-a][1,4]diazacyclopentadecin-6-yl)carbamate
- ring closure, isolated yield ([1]; 6.6 mM, 70.0 °C): 58%

Reference: patent publication US11472778B2, “Hepatitis C virus NS3/4A protease inhibitors” (priority 2017, dated 2022)
